Test results published in patent US12180193B2, “Accelerating fibrosarcoma protein degrading compounds and associated methods of use” (Arvinas Operations, Inc., priority 2020, dated 2024).

Tests used:
BRAF V600E = molecular target: T1, BRAF V600E (Homo sapiens, UniProt P15056, V600E); assay: Cellular assay of target protein degradation, T-Rex 293 cells stably transfected with HA-BRAF_V600E (HA immunofluorescence, high content imaging); assay type: cell-based; settings: T-Rex 293 HA-BRAF V600E; for DC50: half maximal degradation, read-out: BRaf V600E DC50; for Dmax: maximum degradation observed
T1 construct: expressed in transfected cells
Method in brief: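 Degradation of the HA-tagged construct is measured after 24 h treatment at 37 °C across 1 μM to 0.1 nM in 0.1% DMSO, in doxycycline-induced (1 ng/mL) cells. DC50 and Dmax come from HA fluorescence imaging.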

BRAF G466V = molecular target: T2, BRAF G466V (Homo sapiens, UniProt P15056, G466V); assay: Cellular assay of target protein degradation, T-Rex 293 cells stably transfected with HA-BRAF G466V (HA immunofluorescence, high content imaging); assay type: cell-based; settings: T-Rex 293 HA-BRAF G466V; for DC50: half maximal degradation, read-out: BRaf G466V DC50; for Dmax: maximum degradation observed
T2 construct: expressed in transfected cells
Method in brief: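 Dose range spans 30 nM to 3 pM (0.1% DMSO) over 24 hours at 37° C, in cells induced with 0.75 ng/mL doxycycline. Fixed cells are probed with anti-HA antibody overnight at 4° C, then imaged; half-maximal degradation and maximum degradation are derived.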

T2 sequence (P15056 whole entry G466V): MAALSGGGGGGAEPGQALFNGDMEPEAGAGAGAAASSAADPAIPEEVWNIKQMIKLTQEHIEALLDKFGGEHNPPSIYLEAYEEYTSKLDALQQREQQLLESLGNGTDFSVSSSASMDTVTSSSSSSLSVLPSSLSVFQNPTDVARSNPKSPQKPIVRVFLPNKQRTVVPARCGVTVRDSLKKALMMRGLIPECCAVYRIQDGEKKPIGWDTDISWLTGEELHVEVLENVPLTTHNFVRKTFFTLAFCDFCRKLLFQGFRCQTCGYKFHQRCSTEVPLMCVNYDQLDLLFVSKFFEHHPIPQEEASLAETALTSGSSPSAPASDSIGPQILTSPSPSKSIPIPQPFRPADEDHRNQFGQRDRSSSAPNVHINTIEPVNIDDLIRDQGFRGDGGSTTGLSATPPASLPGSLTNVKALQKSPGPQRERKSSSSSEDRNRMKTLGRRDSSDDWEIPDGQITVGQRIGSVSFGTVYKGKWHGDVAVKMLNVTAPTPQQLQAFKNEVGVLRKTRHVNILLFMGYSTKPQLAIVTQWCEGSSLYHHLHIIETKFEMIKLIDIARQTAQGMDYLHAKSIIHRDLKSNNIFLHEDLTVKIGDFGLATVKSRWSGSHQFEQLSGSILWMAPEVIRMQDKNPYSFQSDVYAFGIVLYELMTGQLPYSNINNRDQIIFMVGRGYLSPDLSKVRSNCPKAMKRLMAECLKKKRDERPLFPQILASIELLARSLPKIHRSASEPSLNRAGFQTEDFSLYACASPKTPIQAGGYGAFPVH
T1 sequence (P15056 whole entry V600E): as the sequence (P15056 whole entry G466V) above, with V466G, V600E counted along it

Row | Compound | DC50 (BRAF V600E) | Dmax (BRAF V600E) | DC50 (BRAF G466V) | Dmax (BRAF G466V)
1 | O=C1CC[C@@H](N2Cc3cc(CN4C[C@@H]5CN(c6ccc(-c7cnc8[nH]cc(C(=O)c9c(F)ccc(NS(=O)(=O)N%10CC[C@@H](F)C%10)c9F)c8c7)cc6)C[C@@H]5C4)ccc3C2=O)C(=O)N1 [Compound 77, (3R)-N-[3-(5-{4-[(3aR,6aS)-5-({2-[(3R)-2,6-dioxopiperidin-3-yl]-1-oxo-2,3-dihydro-1H-isoindol-5-yl}methyl)-octahydropyrrolo[3,4-c]pyrrol-2-yl]phenyl}-1H-pyrrolo[2,3-b]pyridine-3-carbonyl)-2,4-difluorophenyl]-3-fluoropyrrolidine-1-sulfonamide] | 5 to 50 nM | 35 to 70% | > 30 nM | 
2 | O=C1CCC(N2Cc3cc(CN4CCN(c5ccc(-c6cnc7[nH]cc(C(=O)c8c(F)ccc(NS(=O)(=O)N9CC[C@@H](F)C9)c8F)c7c6)cc5)C[C@@H]4CO)ccc3C2=O)C(=O)N1 (stereo partly drawn) [Compound 78, (3R)-N-[3-(5-{4-[(3R)-4-{[2-(2,6-dioxopiperidin-3-yl)-1-oxo-2,3-dihydro-1H-isoindol-5-yl]methyl}-3-(hydroxymethyl)piperazin-1-yl]phenyl}-1H-pyrrolo [2,3-b]pyridine-3-carbonyl)-2,4-difluorophenyl]-3-fluoropyrrolidine-1-sulfonamide] | > 500 nM | > 70% | > 30 nM | 
3 | COc1cc(N2CC(N3CCN(c4ccc(-c5cnc6[nH]cc(C(=O)c7c(F)ccc(NS(=O)(=O)N8CC[C@@H](F)C8)c7F)c6c5)cc4)CC3)C2)cc2c1C(=O)N(C1CCC(=O)NC1=O)C2 (stereo partly drawn) [Compound 79, (3R)-N-(3-{5-[4-(4-{1-[2-(2,6-dioxopiperidin-3-yl)-7-methoxy-1-oxo-2,3-dihydro-1H-isoindol-5-yl]azetidin-3-yl}piperazin-1-yl)phenyl]-1H-pyrrolo[2,3-b]pyridine-3-carbonyl}-2,4-difluorophenyl)-3-fluoropyrrolidine-1-sulfonamide] | 5 to 50 nM | 35 to 70% | > 30 nM | 
4 | O=C1CC[C@@H](N2Cc3cc(OCCCN4CC5(C4)CN(c4ccc(-c6cnc7[nH]cc(C(=O)c8c(F)ccc(NS(=O)(=O)N9CC[C@@H](F)C9)c8F)c7c6)cc4)C5)ccc3C2=O)C(=O)N1 [Compound 81, (3R)-N-{3-[5-(4-{6-[3-({2-[(3R)-2,6-dioxopiperidin-3-yl]-1-oxo-2,3-dihydro-1H-isoindol-5-yl}oxy)propyl]-2,6-diazaspiro[3.3]heptan-2-yl}phenyl)-1H-pyrrolo[2,3-b]pyridine-3-carbonyl]-2,4-difluorophenyl}-3-fluoropyrrolidine-1-sulfonamide] | 5 to 50 nM | 35 to 70% | 1 to 10 nM | > 70%
5 | O=C1CC[C@H](N2Cc3cc(C[C@@H](O)CN4CCN(c5ccc(-c6cnc7[nH]cc(C(=O)c8c(F)ccc(NS(=O)(=O)N9CC[C@@H](F)C9)c8F)c7c6)cc5)CC4)ccc3C2=O)C(=O)N1 [Compound 82, (3R)-N-{3-[5-(4-{4-[(2R)-3-{2-[(3S)-2,6-dioxopiperidin-3-yl]-1-oxo-2,3-dihydro-1H-isoindol-5-yl}-2-hydroxypropyl]piperazin-1-yl}phenyl)-1H-pyrrolo[2,3-b]pyridine-3-carbonyl]-2,4-difluorophenyl}-3-fluoropyrrolidine-1-sulfonamide] | 5 to 50 nM | 35 to 70% | > 30 nM | 
6 | O=C1CC[C@H](N2Cc3cc(C4CN(CC5CCN(c6ccc(-c7cnc8[nH]cc(C(=O)c9c(F)ccc(NS(=O)(=O)N%10CC[C@@H](F)C%10)c9F)c8c7)cc6)CC5)C4)ccc3C2=O)C(=O)N1 [Compound 83, (3R)-N-{3-[5-(4-{4-[(3-{2-[(3S)-2,6-dioxopiperidin-3-yl]-1-oxo-2,3-dihydro-1H-isoindol-5-yl}azetidin-1-yl)methyl]piperidin-1-yl}phenyl)-1H-pyrrolo[2,3-b]pyridine-3-carbonyl]-2,4-difluorophenyl}-3-fluoropyrrolidine-1-sulfonamide] | 50 to 500 nM | > 70% | < 1 nM | 35 to 70%
7 | O=C1CC[C@@H](N2Cc3cc(C4CN(CC5CCN(c6ccc(-c7cnc8[nH]cc(C(=O)c9c(F)ccc(NS(=O)(=O)N%10CC[C@@H](F)C%10)c9F)c8c7)cc6)CC5)C4)ccc3C2=O)C(=O)N1 [Compound 84, (3R)-N-{3-[5-(4-{4-[(3-{2-[(3R)-2,6-dioxopiperidin-3-yl]-1-oxo-2,3-dihydro-1H-isoindol-5-yl}azetidin-1-yl)methyl]piperidin-1-yl}phenyl)-1H-pyrrolo[2,3-b]pyridine-3-carbonyl]-2,4-difluorophenyl}-3-fluoropyrrolidine-1-sulfonamide] | 5 to 50 nM | 35 to 70% | < 1 nM | > 70%
8 | O=C1CC[C@@H](N2Cc3cc(N4CC(CN5C[C@@H]6CN(c7ccc(-c8cnc9[nH]cc(C(=O)c%10c(F)ccc(NS(=O)(=O)N%11CC[C@@H](F)C%11)c%10F)c9c8)cc7)C[C@@H]6C5)C4)ccc3C2=O)C(=O)N1 [Compound 86, (3R)-N-[3-(5-{4-[(3aR,6aS)-5-[(1-{2-[(3R)-2,6-dioxopiperidin-3-yl]-1-oxo-2,3-dihydro-1H-isoindol-5-yl}azetidin-3-yl)methyl]-octahydropyrrolo[3,4-c]pyrrol-2-yl]phenyl}-1H-pyrrolo[2,3-b]pyridine-3-carbonyl)-2,4-difluorophenyl]-3-fluoropyrrolidine-1-sulfonamide] | 5 to 50 nM | 35 to 70% | 1 to 10 nM | > 70%

Other lines, results leading:

Row | DC50 (BRAF V600E) | Dmax (BRAF V600E) | DC50 (BRAF G466V) | Dmax (BRAF G466V) | Compound
9 | 5 to 50 nM | 35 to 70% | 1 to 10 nM | > 70% | O=C1CC[C@H](N2Cc3cc(C[C@H](O)CN4CCN(c5ccc(-c6cnc7[nH]cc(C(=O)c8c(F)ccc(NS(=O)(=O)N9CC[C@@H](F)C9)c8F)c7c6)cc5)CC4)ccc3C2=O)C(=O)N1 [Compound 74]
10 | < 5 nM | 35 to 70% | 1 to 10 nM | > 70% | O=C1CC[C@@H](N2Cc3cc(C[C@H](O)CN4CCN(c5ccc(-c6cnc7[nH]cc(C(=O)c8c(F)ccc(NS(=O)(=O)N9CC[C@@H](F)C9)c8F)c7c6)cc5)CC4)ccc3C2=O)C(=O)N1 [Compound 75, (3R)-N-{3-[5-(4-{4-[(2S)-3-{2-[(3R)-2,6-dioxopiperidin-3-yl]-1-oxo-2,3-dihydro-1H-isoindol-5-yl}-2-hydroxypropyl]piperazin-1-yl}phenyl)-1H-pyrrolo[2,3-b]pyridine-3-carbonyl]-2,4-difluorophenyl}-3-fluoropyrrolidine-1-sulfonamide]
11 | 5 to 50 nM | 35 to 70% | > 30 nM |  | O=C1CC[C@H](N2Cc3cc(CN4C[C@@H]5CN(c6ccc(-c7cnc8[nH]cc(C(=O)c9c(F)ccc(NS(=O)(=O)N%10CC[C@@H](F)C%10)c9F)c8c7)cc6)C[C@@H]5C4)ccc3C2=O)C(=O)N1 [Compound 76, (3R)-N-[3-(5-{4-[(3aR,6aS)-5-({2-[(3S)-2,6-dioxopiperidin-3-yl]-1-oxo-2,3-dihydro-1H-isoindol-5-yl}methyl)-octahydropyrrolo[3,4-c]pyrrol-2-yl]phenyl}-1H-pyrrolo[2,3-b]pyridine-3-carbonyl)-2,4-difluorophenyl]-3-fluoropyrrolidine-1-sulfonamide]
12 | < 5 nM | 35 to 70% | 1 to 10 nM | > 70% | O=C1CC[C@H](N2Cc3cc(OCCCN4CC5(C4)CN(c4ccc(-c6cnc7[nH]cc(C(=O)c8c(F)ccc(NS(=O)(=O)N9CC[C@@H](F)C9)c8F)c7c6)cc4)C5)ccc3C2=O)C(=O)N1 [Compound 80, (3R)-N-{3-[5-(4-{6-[3-({2-[(3S)-2,6-dioxopiperidin-3-yl]-1-oxo-2,3-dihydro-1H-isoindol-5-yl}oxy)propyl]-2,6-diazaspiro[3.3]heptan-2-yl}phenyl)-1H-pyrrolo[2,3-b]pyridine-3-carbonyl]-2,4-difluorophenyl}-3-fluoropyrrolidine-1-sulfonamide]
13 | < 5 nM | 35 to 70% | 1 to 10 nM | > 70% | O=C1CC[C@H](N2Cc3cc(N4CC(CN5C[C@@H]6CN(c7ccc(-c8cnc9[nH]cc(C(=O)c%10c(F)ccc(NS(=O)(=O)N%11CC[C@@H](F)C%11)c%10F)c9c8)cc7)C[C@@H]6C5)C4)ccc3C2=O)C(=O)N1 [Compound 85, (3R)-N-[3-(5-{4-[(3aR,6aS)-5-[(1-{2-[(3S)-2,6-dioxopiperidin-3-yl]-1-oxo-2,3-dihydro-1H-isoindol-5-yl}azetidin-3-yl)methyl]-octahydropyrrolo[3,4-c]pyrrol-2-yl]phenyl}-1H-pyrrolo[2,3-b]pyridine-3-carbonyl)-2,4-difluorophenyl]-3-fluoropyrrolidine-1-sulfonamide]
14 | < 5 nM | 35 to 70% | < 1 nM | > 70% | O=C1CC[C@H](N2Cc3cc(C4CCN(CC5CCN(c6ccc(-c7cnc8[nH]cc(C(=O)c9c(F)ccc(NS(=O)(=O)N%10CC[C@@H](F)C%10)c9F)c8c7)cc6F)CC5)CC4)ccc3C2=O)C(=O)N1 [Compound 87, (3R)-N-{3-[5-(4-{4-[(4-{2-[(3S)-2,6-dioxopiperidin-3-yl]-1-oxo-2,3-dihydro-1H-isoindol-5-yl}piperidin-1-yl)methyl]piperidin-1-yl}-3-fluorophenyl)-1H-pyrrolo[2,3-b]pyridine-3-carbonyl]-2,4-difluorophenyl}-3-fluoropyrrolidine-1-sulfonamide]
